Source: patent US20060052413A1, “Novel piperidine derivatives as modulators of chemokine receptor ccr5” (priority 2002, published 2006)

Biological target: recombinant human CCR5 receptor (Homo sapiens, UniProt P51681)
Assay: MIP-1α radioligand binding assay (scintillation proximity), CHO cell membranes
Conditions: displacement of 0.1 nM iodinated MIP-1α; negative log10 of IC50; average if tested more than once
Method: The ability of compounds to inhibit the binding of MIP-1α was assessed by an in vitro radioligand binding assay. Membranes were prepared from Chinese hamster ovary cells which expressed the recombinant human CCR5 receptor. These membranes were incubated with 0.1 nM iodinated MIP-1α, scintillation proximity beads and various concentrations of the compounds of the invention in 96-well plates. The amount of iodinated MIP-1α bound to the receptor was determined by scintillation counting. Competition curves were obtained for compounds and the concentration of compound which displaced 50% of bound iodinated MIP-1α was calculated (IC50).
In Table II the results are presented as Pic50 values. A Pic50 value is the negative log (to base 10) of the IC50 result, so an IC50 of 1 μM (that is 1×10^−6M) gives a Pic50 of 6. If a compound was tested more than once then the data below is an average of the probative tests results.

Sequence of recombinant human CCR5 receptor (P51681 whole entry): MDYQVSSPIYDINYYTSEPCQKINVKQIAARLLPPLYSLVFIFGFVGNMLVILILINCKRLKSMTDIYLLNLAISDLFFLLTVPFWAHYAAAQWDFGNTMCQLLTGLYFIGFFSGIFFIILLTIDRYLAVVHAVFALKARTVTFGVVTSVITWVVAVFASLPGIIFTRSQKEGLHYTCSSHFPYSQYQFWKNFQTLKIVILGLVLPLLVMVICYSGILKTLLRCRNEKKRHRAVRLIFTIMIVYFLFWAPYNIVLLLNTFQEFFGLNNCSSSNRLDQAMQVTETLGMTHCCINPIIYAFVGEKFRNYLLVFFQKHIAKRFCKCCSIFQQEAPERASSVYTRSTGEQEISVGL

`CCS(=O)(=O)N1CCN(C(CCN2CCC(CCCc3ccccc3)CC2)c2ccccc2)CC1` (stereo not shown) [Compound 3] was tested, and the IC50 was 97.7 nM.
